{"source": "the supplement of paper PMC10307832", "assay_in_all_cases": "relative viability (nuclei count vs DMSO), 5 days (fraction); higher = more cells survive", "key": {"[1]": {"tested_on": "UMC-11", "summary_of_the_method": "(§1)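 Values are medians from duplicate plates. Each reflects relative viability, defined as the nuclei count of treated wells over that of vehicle wells. Lung cancer cell lines in 1536-well plates were pin-tool dosed one day after seeding with one drug alone or with a fixed anchor-drug dose plus five library-drug doses (not always all listed) in √10 steps, then fixed, stained and imaged at 4× after 5 days.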"}, "[2]": {"tested_on": "NCI-H1755", "summary_of_the_method": "as §1"}, "[3]": {"tested_on": "NCI-H2347", "summary_of_the_method": "as §1"}, "[4]": {"tested_on": "NCI-H2228", "summary_of_the_method": "as §1"}, "[5]": {"tested_on": "HCC-366", "summary_of_the_method": "as §1"}, "[6]": {"tested_on": "LCLC-103H", "summary_of_the_method": "as §1"}, "[7]": {"tested_on": "SK-MES-1", "summary_of_the_method": "as §1"}, "[8]": {"tested_on": "NCI-H1792", "summary_of_the_method": "as §1"}, "[9]": {"tested_on": "NCI-H1993", "summary_of_the_method": "as §1"}, "[10]": {"tested_on": "SW 1573", "summary_of_the_method": "as §1"}, "[11]": {"tested_on": "NCI-H650", "summary_of_the_method": "as §1"}, "[12]": {"tested_on": "NCI-H1975", "summary_of_the_method": "as §1"}, "[13]": {"tested_on": "HCC-827", "summary_of_the_method": "as §1"}, "[14]": {"tested_on": "NCI-H23", "summary_of_the_method": "as §1"}, "[15]": {"tested_on": "RERF-LC-KJ", "summary_of_the_method": "as §1"}, "[16]": {"tested_on": "NCI-H2342", "summary_of_the_method": "as §1"}, "[17]": {"tested_on": "NCI-H2170", "summary_of_the_method": "as §1"}, "[18]": {"tested_on": "NCI-H1915", "summary_of_the_method": "as §1"}, "[19]": {"tested_on": "NCI-H1734", "summary_of_the_method": "as §1"}, "[20]": {"tested_on": "SK-LU-1", "summary_of_the_method": "as §1"}, "[21]": {"tested_on": "LC-2-ad", "summary_of_the_method": "as §1"}, "[22]": {"tested_on": "NCI-H1355", "summary_of_the_method": "as §1"}, "[23]": {"tested_on": "A-427", "summary_of_the_method": "as §1"}}, "data": [{"smiles": "CN1CCN(CCOc2cc(OC3CCOCC3)c3c(Nc4c(Cl)ccc5c4OCO5)ncnc3c2)CC1", "note": "[Saracatinib] + COc1cccc2cc(-c3nc([C@H]4CC[C@H](C(=O)O)CC4)n4ncnc(N)c34)[nH]c12 [OSI-027] (partner 0.5 µM)", "values": [{"measurement": "relative viability", "setting": "[1]; first compound 0.02 µM", "result": 0.503}, {"measurement": "relative viability", "setting": "[1]; first compound 0.6325 µM", "result": 0.453}, {"measurement": "relative viability", "setting": "[1]; first compound 2 µM", "result": 0.339}, {"measurement": "relative viability", "setting": "[2]; first compound 0.02 µM", "result": 0.691}, {"measurement": "relative viability", "setting": "[2]; first compound 0.2 µM", "result": 0.643}, {"measurement": "relative viability", "setting": "[2]; first compound 0.6325 µM", "result": 0.706}, {"measurement": "relative viability", "setting": "[2]; first compound 2 µM", "result": 0.634}, {"measurement": "relative viability", "setting": "[3]; first compound 0.02 µM", "result": 0.348}, {"measurement": "relative viability", "setting": "[3]; first compound 0.2 µM", "result": 0.373}, {"measurement": "relative viability", "setting": "[3]; first compound 0.6325 µM", "result": 0.406}, {"measurement": "relative viability", "setting": "[3]; first compound 2 µM", "result": 0.306}, {"measurement": "relative viability", "setting": "[4]; first compound 0.02 µM", "result": 0.719}, {"measurement": "relative viability", "setting": "[4]; first compound 0.2 µM", "result": 0.343}, {"measurement": "relative viability", "setting": "[4]; first compound 0.6325 µM", "result": 0.529}, {"measurement": "relative viability", "setting": "[4]; first compound 2 µM", "result": 0.381}, {"measurement": "relative viability", "setting": "[5]; first compound 0.02 µM", "result": 1.02}, {"measurement": "relative viability", "setting": "[5]; first compound 0.6325 µM", "result": 0.757}, {"measurement": "relative viability", "setting": "[5]; first compound 2 µM", "result": 0.385}, {"measurement": "relative viability", "setting": "[6]; first compound 0.02 µM", "result": 0.481}, {"measurement": "relative viability", "setting": "[6]; first compound 0.2 µM", "result": 0.427}, {"measurement": "relative viability", "setting": "[6]; first compound 0.6325 µM", "result": 0.505}, {"measurement": "relative viability", "setting": "[6]; first compound 2 µM", "result": 0.459}, {"measurement": "relative viability", "setting": "[7]; first compound 0.02 µM", "result": 0.609}, {"measurement": "relative viability", "setting": "[7]; first compound 0.2 µM", "result": 0.603}, {"measurement": "relative viability", "setting": "[7]; first compound 0.6325 µM", "result": 0.475}, {"measurement": "relative viability", "setting": "[7]; first compound 2 µM", "result": 0.234}, {"measurement": "relative viability", "setting": "[8]; first compound 0.02 µM", "result": 0.771}, {"measurement": "relative viability", "setting": "[8]; first compound 0.2 µM", "result": 0.462}, {"measurement": "relative viability", "setting": "[8]; first compound 0.6325 µM", "result": 0.809}, {"measurement": "relative viability", "setting": "[8]; first compound 2 µM", "result": 0.558}, {"measurement": "relative viability", "setting": "[9]; first compound 0.02 µM", "result": 0.54}, {"measurement": "relative viability", "setting": "[9]; first compound 0.2 µM", "result": 0.508}, {"measurement": "relative viability", "setting": "[9]; first compound 0.6325 µM", "result": 0.497}, {"measurement": "relative viability", "setting": "[9]; first compound 2 µM", "result": 0.525}, {"measurement": "relative viability", "setting": "[10]; first compound 0.02 µM", "result": 0.624}, {"measurement": "relative viability", "setting": "[10]; first compound 0.2 µM", "result": 0.55}, {"measurement": "relative viability", "setting": "[10]; first compound 0.6325 µM", "result": 0.667}, {"measurement": "relative viability", "setting": "[10]; first compound 2 µM", "result": 0.456}, {"measurement": "relative viability", "setting": "[11]; first compound 0.02 µM", "result": 0.602}, {"measurement": "relative viability", "setting": "[11]; first compound 0.2 µM", "result": 0.504}, {"measurement": "relative viability", "setting": "[11]; first compound 0.6325 µM", "result": 0.524}, {"measurement": "relative viability", "setting": "[11]; first compound 2 µM", "result": 0.493}, {"measurement": "relative viability", "setting": "[12]; first compound 0.02 µM", "result": 0.678}, {"measurement": "relative viability", "setting": "[12]; first compound 0.2 µM", "result": 0.585}, {"measurement": "relative viability", "setting": "[12]; first compound 0.6325 µM", "result": 0.686}, {"measurement": "relative viability", "setting": "[12]; first compound 2 µM", "result": 0.403}, {"measurement": "relative viability", "setting": "[13]; first compound 0.02 µM", "result": 0.791}, {"measurement": "relative viability", "setting": "[13]; first compound 0.2 µM", "result": 0.564}, {"measurement": "relative viability", "setting": "[13]; first compound 0.6325 µM", "result": 0.259}, {"measurement": "relative viability", "setting": "[13]; first compound 2 µM", "result": 0.122}, {"measurement": "relative viability", "setting": "[14]; first compound 0.02 µM", "result": 0.649}, {"measurement": "relative viability", "setting": "[14]; first compound 0.2 µM", "result": 0.425}, {"measurement": "relative viability", "setting": "[14]; first compound 0.6325 µM", "result": 0.659}, {"measurement": "relative viability", "setting": "[14]; first compound 2 µM", "result": 0.503}, {"measurement": "relative viability", "setting": "[15]; first compound 0.02 µM", "result": 0.575}, {"measurement": "relative viability", "setting": "[15]; first compound 0.2 µM", "result": 0.569}, {"measurement": "relative viability", "setting": "[15]; first compound 0.6325 µM", "result": 0.546}, {"measurement": "relative viability", "setting": "[15]; first compound 2 µM", "result": 0.52}, {"measurement": "relative viability", "setting": "[16]; first compound 0.02 µM", "result": 0.689}, {"measurement": "relative viability", "setting": "[16]; first compound 0.2 µM", "result": 0.702}, {"measurement": "relative viability", "setting": "[16]; first compound 0.6325 µM", "result": 0.64}, {"measurement": "relative viability", "setting": "[16]; first compound 2 µM", "result": 0.637}, {"measurement": "relative viability", "setting": "[17]; first compound 0.02 µM", "result": 0.694}, {"measurement": "relative viability", "setting": "[17]; first compound 0.2 µM", "result": 0.459}, {"measurement": "relative viability", "setting": "[17]; first compound 0.6325 µM", "result": 0.811}, {"measurement": "relative viability", "setting": "[17]; first compound 2 µM", "result": 0.53}, {"measurement": "relative viability", "setting": "[18]; first compound 0.02 µM", "result": 0.623}, {"measurement": "relative viability", "setting": "[18]; first compound 0.2 µM", "result": 0.408}, {"measurement": "relative viability", "setting": "[18]; first compound 0.6325 µM", "result": 0.587}, {"measurement": "relative viability", "setting": "[18]; first compound 2 µM", "result": 0.474}, {"measurement": "relative viability", "setting": "[19]; first compound 0.02 µM", "result": 0.635}, {"measurement": "relative viability", "setting": "[19]; first compound 0.6325 µM", "result": 0.571}, {"measurement": "relative viability", "setting": "[19]; first compound 2 µM", "result": 0.507}, {"measurement": "relative viability", "setting": "[20]; first compound 0.02 µM", "result": 0.33}, {"measurement": "relative viability", "setting": "[20]; first compound 0.2 µM", "result": 0.28}, {"measurement": "relative viability", "setting": "[20]; first compound 0.6325 µM", "result": 0.245}, {"measurement": "relative viability", "setting": "[20]; first compound 2 µM", "result": 0.172}, {"measurement": "relative viability", "setting": "[21]; first compound 0.02 µM", "result": 0.844}, {"measurement": "relative viability", "setting": "[21]; first compound 0.2 µM", "result": 0.804}, {"measurement": "relative viability", "setting": "[21]; first compound 0.6325 µM", "result": 0.881}, {"measurement": "relative viability", "setting": "[21]; first compound 2 µM", "result": 0.728}, {"measurement": "relative viability", "setting": "[22]; first compound 0.02 µM", "result": 0.482}, {"measurement": "relative viability", "setting": "[22]; first compound 0.2 µM", "result": 0.379}, {"measurement": "relative viability", "setting": "[22]; first compound 0.6325 µM", "result": 0.427}, {"measurement": "relative viability", "setting": "[22]; first compound 2 µM", "result": 0.323}, {"measurement": "relative viability", "setting": "[23]; first compound 0.02 µM", "result": 0.506}, {"measurement": "relative viability", "setting": "[23]; first compound 0.2 µM", "result": 0.409}, {"measurement": "relative viability", "setting": "[23]; first compound 0.6325 µM", "result": 0.445}, {"measurement": "relative viability", "setting": "[23]; first compound 2 µM", "result": 0.493}]}]}
